Experimental data taken from patent publication US9702007B2, “Genetic markers predictive of response to glatiramer acetate” (TEVA PHARMACEUTICALS INDUSTRIES, LTD., priority 2013, dated 2017).
“And” between values parts separate entries of the source, which are not always exact repeats. Identical values can stand only once. Like-named read-outs stand apart in the source and are kept apart here.

Assays:
[1] = test system: RRMS patients; assay: GALA phase 3 trial cohort: response to glatiramer acetate, ARR by predicted responder status; format: in vivo, human
Procedure: As used herein, “GALA” is a phase 3 clinical trial entitled “A Study in Subjects With Relapsing-Remitting Multiple Sclerosis (RRMS) to Assess the Efficacy, Safety and Tolerability of Glatiramer Acetate (GA) Injection 40 mg Administered Three Times a Week Compared to Placebo (GALA).” The GALA trial has the ClinicalTrials.gov Identifier NCT01067521, and additional information about the trial can be found at clinicaltrials.gov/ct2/show/NCT01067521.
(§1) Response definitions were received from patients from two large glatiramer acetate clinical trial cohorts (GALA, FORTE) and patients were categorized as responder, non-responder, extreme-responder, or extreme non-responder according to the criteria set forth in Table 1.
(§2) When analysis was conducted for all genotyped patients of the Gala and FORTE cohorts, based on the predictive model (11 SNPs and 2 clinical variables), 34% of GALA, and 42% of FORTE-patients were classified as “predicted responders”.
(§3) Analysis was conducted for all genotyped patients of the Gala and FORTE cohorts, based on the 11 SNPs in the predictive model, but without including the clinical variables, and using a threshold at ˜30% of the population classified as “predicted responders” (FIG. 9).
(§4) When analysis was conducted for all genotyped patients of the Gala and FORTE cohorts, based on the […] and 2 clinical variables, 34% of GALA, and 42% of FORTE-patients were classified as “predicted responders”.

[2] = test system: RRMS patients; assay: FORTE phase 3 trial cohort: response to glatiramer acetate, ARR by predicted responder status; format: in vivo, human; settings: for ARR reduced (improved) by: predicted responders vs predicted non-responders
Description: As used herein, “FORTE” is a phase 3 clinical trial entitled “Clinical Trial Comparing Treatment of Relapsing-Remitting Multiple Sclerosis (RR-MS) With Two Doses of Glatiramer Acetate (GA).” The FORTE trial has the ClinicalTrials.gov Identifier NCT00337779 and additional information, including study results can be found at clinicaltrials.gov/ct2/show/NCT00337779.
as §1, §2, §3, §4

[3] = test system: RRMS patients; assay: Combined GALA and FORTE cohorts: patient responses by preliminary predictive model (11 SNPs and 2 clinical co-variates, threshold 0.71); format: in vivo, human; parameters: ARR reduced (improved) by: concentration or dose not given beside the values
Procedure: A predictive model was generated based on the 11 SNPs shown in tables 42, 43, 44a and 44b and the two Clinical co-variants shown in table 33.
Receiver Operating Characteristic (ROC) analysis was performed using the actual value (case or control) and predicted value for each sample from the multi-marker regression model (FIG. 1). For these preliminary analyses, two risk groups were defined using the predicted values from the multi-marker regression model. The predictive threshold value was set at 0.71 (termed “model 3”) based on a variety of factors after consultation with the Teva team and Teva MS clinical experts.
While 40% of patients were classified as “predicted non-responders” with an overall response rate of 34% (FIG. 5).

[4] = test system: RRMS subjects; settings: cited from earlier work
[5] = test system: RRMS patients; settings: cited from earlier work
[6] = change in ARR <-1 and new T2 lesions = 0 and relapse free
[7] = change in ARR from previous 2 years <-1
[8] = change in ARR from previous 2 years ≧0
[9] = change in ARR ≧0 and new T2 lesions ≧1
[10] = predicted non-responders, 10 SNPs and 2 clinical variables
[11] = predicted non-responders, 11 SNPs without clinical variables
[12] = predicted non-responders, model of 11 SNPs and 2 clinical variables
[13] = predicted responders, 10 SNPs and 2 clinical variables, ± SEM
[14] = predicted responders, 11 SNPs without clinical variables, threshold ~30% of population, ± SEM
[15] = predicted responders, model of 11 SNPs and 2 clinical variables, ± SEM
[16] = predicted responders compared to predicted non-responders
[17] = predicted responders compared to the overall cohort
[18] = predicted responders compared to the overall patient cohort
[19] = predicted responders, ± standard error of the mean

For glatiramer acetate, the “Extreme Responders, % of cohort” value [1, 6] was “(8.5%)”, the “Extreme Responders, number of samples” value [1, 6] was 66 and the “Responders, % of cohort” value [1, 7] was “(26%)”. For the same substance, the “Responders, number of samples” value [1, 7] was 200, the “Non-Responders, % of cohort” value [1, 8] was “(16%)” and the “Non-Responders, number of samples” value [1, 8] was 123. For the same substance, the “Extreme Non-Responders, % of cohort” value [1, 9] was “(10%)”, the “Extreme Non-Responders, number of samples” value [1, 9] was 79 and the “annualized relapse rate (ARR)” value [1, 10] was 0.374±0.038. For the same substance, the “annualized relapse rate (ARR)” value [1, 11] was 0.382±0.037, the “annualized relapse rate (ARR)” value [1, 12] was 0.374±0.038 and the “ARR reduced (improved) by” value ([1]; predicted responders vs placebo, 10 SNPs and 2 clinical variables) was 64%. The “ARR reduced (improved) by” value ([1]; predicted responders vs placebo, 11 SNPs and 2 clinical variables) was 64%, the “ARR reduced (improved) by” value ([1]; predicted responders vs placebo, 11 SNPs without clinical variables) was 71% and the “ARR reduced (improved) by” value ([1]; predicted responders vs predicted non-responders, 10 SNPs and 2 clinical variables) was 51%. The “ARR reduced (improved) by” value ([1]; predicted responders vs predicted non-responders, 11 SNPs and 2 clinical variables) was 51%, the “ARR reduced (improved) by” value ([1]; predicted responders vs predicted non-responders, 11 SNPs without clinical variables) was 62% and the “annualized relapse rate (ARR)” value [1, 13] was 0.185±0.032. The “annualized relapse rate (ARR)” value [1, 14] was 0.131±0.026, the “annualized relapse rate (ARR)” value [1, 15] was 0.185±0.032 and the “Extreme Responders, % of cohort” value [2, 6] was “(16%)”. The “Extreme Responders, number of samples” value [2, 6] was 95, the “Responders, % of cohort” value [2, 7] was “(36%)” and the “Responders, number of samples” value [2, 7] was 221. The “Non-Responders, % of cohort” value [2, 8] was “(11%)”, the “Non-Responders, number of samples” value [2, 8] was 68 and the “Extreme Non-Responders, % of cohort” value [2, 9] was “(6%)”. The “Extreme Non-Responders, number of samples” value [2, 9] was 38, the “annualized relapse rate (ARR)” value [2, 10] was 0.368±0.039 and the “annualized relapse rate (ARR)” value [2, 11] was 0.290±0.03. For the same substance, the “annualized relapse rate (ARR)” value [2, 12] was 0.368±0.039, the “ARR reduced (improved) by” value ([2]; 10 SNPs and 2 clinical variables) was 72% and the “ARR reduced (improved) by” value ([2]; 11 SNPs and 2 clinical variables) was 72%. The “ARR reduced (improved) by” value ([2]; 11 SNPs without clinical variables) was 50%, the “annualized relapse rate (ARR)” value [2, 13] was 0.102±0.020 and the “annualized relapse rate (ARR)” value [2, 14] was 0.145±0.029. The “annualized relapse rate (ARR)” value [2, 15] was 0.102±0.020, the EDSS progression ([3]; overall cohort) was 0.057 and the response rate ([3]; overall cohort) was 68%. For the same substance, the “annualized relapse rate (ARR)” value ([3]; overall patient cohort) was 0.53±0.04, the “number of confirmed relapses (nrelapse)” value ([3]; overall patient cohort) was 0.46±0.03 and the EDSS progression ([3]; predicted non-responders) was 0.10±0.02. For the same substance, the “annualized relapse rate (ARR)” value ([3]; predicted non-responders) was 1.04±0.08, the “number of T1 enhancing lesions at month 12” value ([3]; predicted non-responders) was 1.70±0.38 and the “number of confirmed relapses (nrelapse)” value ([3]; predicted non-responders) was 0.88±0.06. The response rate ([3]; predicted non-responders, Gala and Forte cohorts) was 34%, the EDSS progression ([3]; predicted responders) was 0.03±0.01 and the “number of T1 enhancing lesions at month 12” value ([3]; predicted responders) was 0.91±0.18. The “ARR reduced (improved) by” value [3, 16] was 80%, the improved response rate [3, 16] was 2.7 fold and the “number of T1 enhancing lesions at month 12 reduced (improved) by” value [3, 16] was 47%. The “number of confirmed relapses reduced (improved) by” value [3, 16] was 78%, the “improvement in response rate” value [3, 17] was 34% and the “reduced EDSS progression” value [3, 17] was 49%. For the same substance, the “ARR reduced (improved) by” value [3, 18] was 60%, the “number of confirmed relapses reduced (improved) by” value [3, 18] was 58% and the “EDSS progression delayed (improved) by” value ([3]; predicted responders versus predicted non-responders) was 72%. The response rate ([3]; predicted responders, Gala and Forte cohorts) was 91.1% and 91%, the “annualized relapse rate (ARR)” value [3, 19] was 0.21±0.03 and the “number of confirmed relapses (nrelapse)” value [3, 19] was 0.19±0.03. The “relapse rate reduced by” value ([4]; GA 20 mg vs placebo, largest controlled study) was 32%, the tolerability ([4]; daily standard dose of 20 mg) was “generally well tolerated” and the “median cumulative number of Gd-enhancing lesions” value ([4]; over 9 months of treatment, 20 mg group) was 11 lesions. The relapse rate ([4]; under GA 20 mg, largest controlled study) was 1.34, the response rate ([5]; DRB1*1501 carriers) was 81.8% and the response rate ([5]; non-carriers of DRB1*1501) was 39.4%. The response rate ([5]; whole study population (N=83 RRMS)) was 50%.
